Data taken from patent publication US20030224942A1, “Alkylamino-1,3,5-triazines, processes for their preparation and their use as herbicides and plant growth regulators” (priority 2001, published 2003).

Key:
[1] = system: Cyperus spp., Echinochloa spp., Digitaria spp., Sagitaria spp. and Scirpus spp.; assay: Action on harmful plants in rice (paddy rice conditions, visual scoring); assay type: in vivo, typical rice weeds (gramineous and broad-leaved); details: applied into the dammed water, visual scoring about three weeks after application
Summary of the method: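 Rice and typical gramineous and broad-leaved rice weeds grown in closed pots in greenhouse under paddy conditions (2-3 cm water) to three-leaf stage (Echinochloa crus-galli 1.5-leaf), then treated with compounds. Plants kept under optimum greenhouse conditions throughout; effect scored visually.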

[2] = system: Chenopodium spp., Papaver spp., Polygonum spp., Veronica spp. or Viola spp.; assay: Post-emergence effect on weeds (greenhouse pot test, visual scoring); assay type: in vivo, monocotyledonous and dicotyledonous weeds; details: treated at three-leaf stage; visual scoring after about 3 to 4 weeks; application rate of 0.5 kg and less of active substance per hectare

CC(F)C#Cc1ccc(C(C)Nc2nc(N)nc(C(C)F)n2)cc1 (stereo not shown) [Product P22.1598] was tested. Which “herbicidal activity against harmful plants which are typical for rice crops” value (“herbicidal activity … for rice crops” for short) [1] did it give?
Its value is “very good herbicidal activity”.

What about the “herbicidal activity post-emergence against harmful plants” value (shortened to “herbicidal activity post-emergence”) [2] of the same compound?
The value was “very good herbicidal activity”.

How did the “herbicidal activity … for rice crops” value [1] turn out when CC(O)C#Cc1cccc(C(C)Nc2nc(N)nc(C(C)F)n2)c1 (stereo not shown) [Product P22.1600] was run?
The value was “very good herbicidal activity”.

What about the “herbicidal activity post-emergence” value [2] of the same compound?
Its value is “very good herbicidal activity”.

What does the source list for CC(O)C#Cc1ccc(C(C)Nc2nc(N)nc(C(C)F)n2)cc1 (stereo not shown) [Product P22.1601]?
herbicidal activity against harmful plants which are typical for rice crops [1]: very good herbicidal activity; herbicidal activity post-emergence against harmful plants [2]: very good herbicidal activity

For CC(F)c1nc(N)nc(NC(C)c2cccc(C3CC3)c2)n1 (stereo not shown) [Product P22.1603], which “herbicidal activity … for rice crops” value [1] is on record?
Its value is “very good herbicidal activity”.

And the “herbicidal activity post-emergence” value [2]?
The value was “very good herbicidal activity”.

CC(F)c1nc(N)nc(NC(C)c2ccc(C3CC3)cc2)n1 (stereo not shown) [Product P22.1604] was tested. Which “herbicidal activity … for rice crops” value [1] did it give?
Its value is “very good herbicidal activity”.

What about the “herbicidal activity post-emergence” value [2] of the same compound?
The value was “very good herbicidal activity”.

C#Cc1ccc(C(C)Nc2nc(N)nc(C(C)F)n2)cc1F (stereo not shown) [Product P22.1620] was tested. Which “herbicidal activity … for rice crops” value [1] did it give?
Its value is “very good herbicidal activity”.

What about the “herbicidal activity post-emergence” value [2] of the same compound?
The value was “very good herbicidal activity”.

What does the source list for CC(F)c1nc(N)nc(NC(c2cccc(C(F)=C(F)F)c2)C2CC2)n1 (stereo not shown) [Product P24.1567]?
herbicidal activity against harmful plants which are typical for rice crops [1]: very good herbicidal activity; herbicidal activity post-emergence against harmful plants [2]: very good herbicidal activity

What does the source list for CC(F)c1nc(N)nc(NC(c2ccc(C(F)=C(F)F)cc2)C2CC2)n1 (stereo not shown) [Product P24.1568]?
herbicidal activity against harmful plants which are typical for rice crops [1]: very good herbicidal activity; herbicidal activity post-emergence against harmful plants [2]: very good herbicidal activity

With C#Cc1cccc(C(Nc2nc(N)nc(C(C)F)n2)C2CC2)c1 (stereo not shown) [Product P24.1579] as the compound, how does the “herbicidal activity … for rice crops” value [1] read?
Its value is “very good herbicidal activity”.

And the “herbicidal activity post-emergence” value [2]?
The value was “very good herbicidal activity”.

Which results are given for C#Cc1ccc(C(Nc2nc(N)nc(C(C)F)n2)C2CC2)cc1 (stereo not shown) [Product P24.1580]?
herbicidal activity against harmful plants which are typical for rice crops [1]: very good herbicidal activity; herbicidal activity post-emergence against harmful plants [2]: very good herbicidal activity

Which “herbicidal activity … for rice crops” value [1] does the source give for CC#Cc1cccc(C(Nc2nc(N)nc(C(C)F)n2)C2CC2)c1 (stereo not shown) [Product P24.1582] here?
The value was “very good herbicidal activity”.

And the “herbicidal activity post-emergence” value [2]?
Its value is “very good herbicidal activity”.

Which results are given for CC#Cc1ccc(C(Nc2nc(N)nc(C(C)F)n2)C2CC2)cc1 (stereo not shown) [Product P24.1583]?
herbicidal activity against harmful plants which are typical for rice crops [1]: very good herbicidal activity; herbicidal activity post-emergence against harmful plants [2]: very good herbicidal activity

Which results are given for CC(F)c1nc(N)nc(NC(c2cccc(C3CC3)c2)C2CC2)n1 (stereo not shown) [Product P24.1603]?
herbicidal activity against harmful plants which are typical for rice crops [1]: very good herbicidal activity; herbicidal activity post-emergence against harmful plants [2]: very good herbicidal activity

For CC(F)c1nc(N)nc(NC(c2ccc(C3CC3)cc2)C2CC2)n1 (stereo not shown) [Product P24.1604], which “herbicidal activity … for rice crops” value [1] is on record?
The value was “very good herbicidal activity”.

What about the “herbicidal activity post-emergence” value [2] of the same compound?
The value was “very good herbicidal activity”.

What does the source list for CCC(F)c1nc(N)nc(NCc2ccc(F)c(C(F)=C(F)F)c2)n1 (stereo not shown) [Product P26.5]?
herbicidal activity against harmful plants which are typical for rice crops [1]: very good herbicidal activity; herbicidal activity post-emergence against harmful plants [2]: very good herbicidal activity

With CCC(F)c1nc(N)nc(NCc2cc(F)c(C(F)=C(F)F)c(F)c2)n1 (stereo not shown) [Product P26.49] as the compound, how does the “herbicidal activity … for rice crops” value [1] read?
The value was “very good herbicidal activity”.

What about the “herbicidal activity post-emergence” value [2] of the same compound?
The value was “very good herbicidal activity”.

For C#Cc1cc(CNc2nc(N)nc(C(F)CC)n2)ccc1F (stereo not shown) [Product P26.309], which “herbicidal activity … for rice crops” value [1] is on record?
Its value is “very good herbicidal activity”.

What about the “herbicidal activity post-emergence” value [2] of the same compound?
Its value is “very good herbicidal activity”.
